# Measurements taken from patent publication US20050048508A1, “Trehalose receptor and method for detecting trehalose with the same” (KABUSHIKI KAISHA HAYASHIBARA SEIBUTSU KAGAKU KENKYUJO, priority 2002, published 2005).
# Target: T1, T1R2 and T1R3 without G protein α-subunit (Mus musculus, UniProt Q925D8+Q925I4, E350G/G527D/I706N/P352R/R175Q)
# T1 construct: expressed in transfected cells; host or cells: 293 cells, RCB 1637 (human embryonic kidney)
# T1 sequence (Q925I4 20-843 R175Q/E350G/P352R/G527D): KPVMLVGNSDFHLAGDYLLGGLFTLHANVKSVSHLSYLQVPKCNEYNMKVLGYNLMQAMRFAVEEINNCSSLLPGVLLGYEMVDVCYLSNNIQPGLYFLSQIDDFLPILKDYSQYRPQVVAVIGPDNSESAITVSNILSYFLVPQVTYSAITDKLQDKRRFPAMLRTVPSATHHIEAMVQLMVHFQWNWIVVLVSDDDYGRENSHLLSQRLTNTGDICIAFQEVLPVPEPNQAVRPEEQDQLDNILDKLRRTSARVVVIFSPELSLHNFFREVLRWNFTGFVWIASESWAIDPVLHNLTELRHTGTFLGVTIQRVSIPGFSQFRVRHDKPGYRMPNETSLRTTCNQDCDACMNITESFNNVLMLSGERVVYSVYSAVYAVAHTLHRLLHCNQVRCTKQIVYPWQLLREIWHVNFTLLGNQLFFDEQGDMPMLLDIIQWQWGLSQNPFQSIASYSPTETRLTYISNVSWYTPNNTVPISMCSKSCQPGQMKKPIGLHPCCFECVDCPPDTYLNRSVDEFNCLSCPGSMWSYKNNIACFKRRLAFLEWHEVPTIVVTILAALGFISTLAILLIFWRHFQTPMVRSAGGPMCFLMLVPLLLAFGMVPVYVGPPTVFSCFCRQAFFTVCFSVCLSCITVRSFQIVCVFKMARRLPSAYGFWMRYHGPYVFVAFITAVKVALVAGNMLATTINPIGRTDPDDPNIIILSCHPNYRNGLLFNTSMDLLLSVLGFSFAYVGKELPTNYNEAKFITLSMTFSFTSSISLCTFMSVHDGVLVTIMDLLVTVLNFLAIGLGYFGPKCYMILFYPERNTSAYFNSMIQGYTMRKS
# T1 sequence (Q925D8 21-858 I706N): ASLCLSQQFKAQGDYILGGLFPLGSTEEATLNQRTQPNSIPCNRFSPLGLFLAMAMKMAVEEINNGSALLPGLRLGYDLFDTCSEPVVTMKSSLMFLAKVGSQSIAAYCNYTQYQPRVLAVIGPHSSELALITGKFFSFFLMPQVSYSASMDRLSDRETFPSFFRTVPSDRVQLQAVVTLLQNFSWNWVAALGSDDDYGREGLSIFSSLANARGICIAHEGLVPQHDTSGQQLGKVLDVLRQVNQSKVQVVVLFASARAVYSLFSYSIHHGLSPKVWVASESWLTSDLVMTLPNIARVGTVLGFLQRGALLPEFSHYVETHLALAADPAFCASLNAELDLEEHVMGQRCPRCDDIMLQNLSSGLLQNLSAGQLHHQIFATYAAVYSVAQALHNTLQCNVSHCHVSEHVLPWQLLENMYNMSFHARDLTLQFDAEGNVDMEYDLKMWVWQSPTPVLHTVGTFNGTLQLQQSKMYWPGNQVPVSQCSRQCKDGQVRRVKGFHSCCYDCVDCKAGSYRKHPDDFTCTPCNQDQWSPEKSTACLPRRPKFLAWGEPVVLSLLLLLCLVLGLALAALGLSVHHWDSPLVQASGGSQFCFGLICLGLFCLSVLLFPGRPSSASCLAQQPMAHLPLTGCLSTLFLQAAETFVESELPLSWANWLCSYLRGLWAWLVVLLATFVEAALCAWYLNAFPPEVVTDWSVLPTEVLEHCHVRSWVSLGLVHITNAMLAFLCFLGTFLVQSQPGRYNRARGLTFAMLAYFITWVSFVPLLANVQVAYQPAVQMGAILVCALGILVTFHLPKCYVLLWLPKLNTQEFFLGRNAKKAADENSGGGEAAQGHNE
# Assay: Intracellular calcium ion assay, 293 cells expressing T1R2 and T1R3 without G protein α-subunits
# Format: cell-based
# Settings: 293 cells: T1R2 + T1R3, no G protein α-subunit; 0.67 ml of 1 M saccharide solution added to 2 ml cell suspension
row,Influx of calcium ion,Compound
1,Negative,"OC[C@H]1O[C@@](CO)(O[C@H]2O[C@H](CO)[C@@H](O)[C@H](O)[C@H]2O)[C@@H](O)[C@@H]1O [Sucrose, reference compound]"
2,Negative,OC[C@H]1O[C@H](O[C@H]2O[C@H](CO)[C@@H](O)[C@H](O)[C@H]2O)[C@H](O)[C@@H](O)[C@@H]1O [Trehalose]
